Results: patent US8173645B2 (Takeda San Diego, Inc., priority 2007, dated 2012)

Biological target: T1, glucokinase (GK), residues 12-465 of the human enzyme (Homo sapiens, UniProt P35557)
T1 construct: I.D. No. 1 corresponds to residues 12-465 of glucokinase; made in house; host or cells: E. coli DH10b-Tlr
T1 sequence (P35557 with tags, fused parts or gaps isoform P35557-2): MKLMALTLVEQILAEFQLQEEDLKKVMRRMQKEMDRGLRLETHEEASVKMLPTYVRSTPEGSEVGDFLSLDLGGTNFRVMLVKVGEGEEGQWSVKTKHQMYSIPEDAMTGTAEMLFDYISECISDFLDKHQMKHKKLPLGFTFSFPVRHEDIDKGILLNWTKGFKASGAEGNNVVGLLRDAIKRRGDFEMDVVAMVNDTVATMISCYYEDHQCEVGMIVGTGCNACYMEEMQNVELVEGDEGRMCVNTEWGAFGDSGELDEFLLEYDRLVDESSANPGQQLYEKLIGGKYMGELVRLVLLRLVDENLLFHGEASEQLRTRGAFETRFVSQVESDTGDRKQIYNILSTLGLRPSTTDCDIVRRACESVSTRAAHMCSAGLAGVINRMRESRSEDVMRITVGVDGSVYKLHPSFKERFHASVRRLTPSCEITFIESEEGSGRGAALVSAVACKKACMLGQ
Experiment: Enzymatic glucokinase activity assay (KinaseGlo luminescence, ATP consumption)
Type: biochemical
Details: 5 μM ATP, 5 mM Glucose; for EC50: GK activation, Kact = concentration giving 50% of the maximal increase in GK activity, read-out: pKact; for Emax: read-out: % ACTmax
Method in brief: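 Activation measured as ATP consumption: residual ATP detected by KinaseGlo luminescence after 60 min at room temperature with 5 μM ATP and 5 mM glucose (Hepes pH 7.2, MgCl2, Brij35, DTT, 2% DMSO). Enzyme was recombinant FLAG-tagged protein from E. coli. Eleven-point twofold series were fitted nonlinearly for pKact and % ACTmax.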

[1] = calculated maximal gain in GK enzyme activity at a saturating concentration of the compound

SMILES	EC50 [nM]	Emax [1] [%]	% ACTmax [1]
O=C(c1ccncc1)c1cccc(S(=O)(=O)N2CCN([C@@H](CC3CCCCC3)C(=O)Nc3nccs3)C(=O)C2)c1 [Example 179, (S)-3-cyclohexyl-2-(4-(3-isonicotinoylphenylsulfonyl)-2-oxopiperazin-1-yl)-N-(thiazol-2-yl)propanamide]	794 to 1260	108 to 119	
COC(=O)c1cc(S(=O)(=O)N2CCN([C@@H](CC3CCCCC3)C(=O)Nc3nccs3)C(=O)C2)oc1C [Example 159, (S)-methyl 5-(4-(3-cyclohexyl-1-oxo-1-(thiazol-2-ylamino)propan-2-yl)-3-oxopiperazin-1-ylsulfonyl)-2-methylfuran-3-carboxylate]	794 to 1260	97.1 to 107	
Cn1cc(S(=O)(=O)N2CCN([C@@H](CC3CCCCC3)C(=O)Nc3nccs3)C(=O)C2)c(C(F)(F)F)n1 [Example 198, (S)-3-cyclohexyl-2-(4-(1-methyl-3-(trifluoromethyl)-1H-pyrazol-4-ylsulfonyl)-2-oxopiperazin-1-yl)-N-(thiazol-2-yl)propanamide]	1580 to 2510	108 to 119	
CC(C)(C)c1ccc(S(=O)(=O)N2CCN([C@@H](CC3CCCCC3)C(=O)Nc3nccs3)C(=O)C2)cc1 [Example 224, (S)-2-(4-(4-tert-butylphenylsulfonyl)-2-oxopiperazin-1-yl)-3-cyclohexyl-N-(thiazol-2-yl)propanamide]	794 to 1260	≤ 74	
O=C(Nc1nccs1)[C@H](CC1CCCCC1)N1CCN(S(=O)(=O)c2cc(Cl)c(Cl)s2)CC1=O [Example 170, (S)-3-cyclohexyl-2-(4-(4,5-dichlorothiophen-2-ylsulfonyl)-2-oxopiperazin-1-yl)-N-(thiazol-2-yl)propanamide]	≤ 631	≤ 74	
O=C(Nc1nccs1)[C@H](CC1CCCCC1)N1CCN(S(=O)(=O)c2cc3ccccc3o2)CC1=O [Example 226, (S)-2-(4-(benzofuran-2-ylsulfonyl)-2-oxopiperazin-1-yl)-3-cyclohexyl-N-(thiazol-2-yl)propanamide]	794 to 1260	74.1 to 97	
CC(=O)N1CCC(CC(C(=O)Nc2nccs2)N2CCN(S(=O)(=O)C3CC3)CC2=O)C1 (stereo not drawn) [Example 20, 3-(1-acetylpyrrolidin-3-yl)-2-(4-(cyclopropylsulfonyl)-2-oxopiperazin-1-yl)-N-(thiazol-2-yl)propanamide]	794 to 1260	108 to 119	
COc1ccc(CNC(=S)N2CCN([C@@H](CC3CCCCC3)C(=O)Nc3nccs3)C(=O)C2)cc1 [Example 122, (S)-3-cyclohexyl-2-(4-(4-methoxybenzylcarbamothioyl)-2-oxopiperazin-1-yl)-N-(thiazol-2-yl)propanamide]	1580 to 2510	74.1 to 97	
O=C(Nc1nccs1)[C@H](CC1CCCCC1)N1CCN(S(=O)(=O)CC(F)(F)F)CC1=O [Example 93, (S)-3-cyclohexyl-2-(2-oxo-4-(2,2,2-trifluoroethylsulfonyl)piperazin-1-yl)-N-(thiazol-2-yl)propanamide]	1580 to 2510	≥ 119	
O=C(Nc1ncc(Cl)s1)C(CC1CCOCC1)N1CCN(S(=O)(=O)c2ccc(F)cc2)CC1=O (stereo not drawn) [Example 33, N-(5-chlorothiazol-2-yl)-2-(4-(4-fluorophenylsulfonyl)-2-oxopiperazin-1-yl)-3-(tetrahydro-2H-pyran-4-yl)propanamide]	794 to 1260	≥ 119	
CC(C)Oc1ccc(S(=O)(=O)N2CCN([C@@H](CC3CCCCC3)C(=O)Nc3nccs3)C(=O)C2)cc1 [Example 101, (S)-3-cyclohexyl-2-(4-(4-isopropoxyphenylsulfonyl)-2-oxopiperazin-1-yl)-N-(thiazol-2-yl)propanamide]	≤ 631	≤ 74	
NS(=O)(=O)c1ccc(NC(=S)N2CCN([C@@H](CC3CCCCC3)C(=O)Nc3nccs3)C(=O)C2)cc1 [Example 134, (S)-3-cyclohexyl-2-(2-oxo-4-(4-sulfamoylphenylcarbamothioyl)piperazin-1-yl)-N-(thiazol-2-yl)propanamide]	1580 to 2510	108 to 119	
O=C(Nc1ncc(Cl)s1)C(CC1CCCC1)N1CCN(S(=O)(=O)C2CC2)CC1=O (stereo not drawn) [Example 16, N-(5-chlorothiazol-2-yl)-3-cyclopentyl-2-(4-(cyclopropylsulfonyl)-2-oxopiperazin-1-yl)propanamide]	≤ 631	≥ 119	
O=C(Nc1nccs1)[C@H](CC1CCCCC1)N1CCN(C(=O)Nc2ccc(OCc3ccccc3)cc2)CC1=O [Example 146, (S)-N-(4-(benzyloxy)phenyl)-4-(3-cyclohexyl-1-oxo-1-(thiazol-2-ylamino)propan-2-yl)-3-oxopiperazine-1-carboxamide]	≥ 3160	≤ 74	
O=C(Nc1nccs1)[C@H](CC1CCCCC1)N1CCN(S(=O)(=O)Cc2cc(Cl)cc(Cl)c2)CC1=O [Example 212, (S)-3-cyclohexyl-2-(4-(3,5-dichlorobenzylsulfonyl)-2-oxopiperazin-1-yl)-N-(thiazol-2-yl)propanamide]	1580 to 2510	74.1 to 97	
O=C(Nc1nccs1)[C@H](CC1CCCCC1)N1CCN(C(=O)Nc2ccc3ccccc3c2)CC1=O [Example 139, (S)-4-(3-cyclohexyl-1-oxo-1-(thiazol-2-ylamino)propan-2-yl)-N-(naphthalen-2-yl)-3-oxopiperazine-1-carboxamide]	≥ 3160	74.1 to 97	
CC(=O)c1cccc(S(=O)(=O)N2CCN([C@@H](CC3CCCCC3)C(=O)Nc3nccs3)C(=O)C2)c1 [Example 196, (S)-2-(4-(3-acetylphenylsulfonyl)-2-oxopiperazin-1-yl)-3-cyclohexyl-N-(thiazol-2-yl)propanamide]	1580 to 2510	97.1 to 107	
O=C(Nc1nccs1)[C@H](CC1CCCCC1)N1CCN(S(=O)(=O)c2ccc(Cl)c(Cl)c2)CC1=O [Example 90, (S)-3-cyclohexyl-2-(4-(3,4-dichlorophenylsulfonyl)-2-oxopiperazin-1-yl)-N-(thiazol-2-yl)propanamide]	794 to 1260	≤ 74	
COc1cccc(S(=O)(=O)N2CCN([C@@H](CC3CCCCC3)C(=O)Nc3nccs3)C(=O)C2)c1 [Example 92, (S)-3-cyclohexyl-2-(4-(3-methoxyphenylsulfonyl)-2-oxopiperazin-1-yl)-N-(thiazol-2-yl)propanamide]	794 to 1260	≥ 119	
O=C(Nc1nccs1)[C@H](CC1CCCCC1)N1CCN(C(=S)NC2CC2)CC1=O [Example 129, (S)-3-cyclohexyl-2-(4-(cyclopropylcarbamothioyl)-2-oxopiperazin-1-yl)-N-(thiazol-2-yl)propanamide]	1580 to 2510	97.1 to 107	
O=C(Nc1nccs1)[C@H](CC1CCCCC1)N1CCN(S(=O)(=O)c2ccc3c(c2)CCO3)CC1=O [Example 102, (S)-3-cyclohexyl-2-(4-(2,3-dihydrobenzofuran-5-ylsulfonyl)-2-oxopiperazin-1-yl)-N-(thiazol-2-yl)propanamide]	794 to 1260	74.1 to 97	
O=C(Nc1ncc(Cl)s1)[C@H](CC1CCOCC1)N1CCN(S(=O)(=O)c2cccc(F)c2)CC1=O [Example 150, (S)-N-(5-chlorothiazol-2-yl)-2-(4-(3-fluorophenylsulfonyl)-2-oxopiperazin-1-yl)-3-(tetrahydro-2H-pyran-4-yl)propanamide]	≤ 631	108 to 119	
CCN(CC)CCCNC(=S)N1CCN([C@@H](CC2CCCCC2)C(=O)Nc2nccs2)C(=O)C1 [Example 133, (S)-3-cyclohexyl-2-(4-(3-(diethylamino)propylcarbamothioyl)-2-oxopiperazin-1-yl)-N-(thiazol-2-yl)propanamide]	794 to 1260	97.1 to 107	
O=C(Nc1nccs1)[C@H](CC1CCCCC1)N1CCN(S(=O)(=O)C2CC2)CC1=O [Example 2, (S)-3-cyclohexyl-2-(4-(cyclopropylsulfonyl)-2-oxopiperazin-1-yl)-N-(thiazol-2-yl)propanamide]	≤ 631		107.5-119.0%
Cn1nc(-c2ccc(S(=O)(=O)N3CCN([C@@H](CC4CCCCC4)C(=O)Nc4nccs4)C(=O)C3)s2)cc1C(F)(F)F [Example 175, (S)-3-cyclohexyl-2-(4-(5-(1-methyl-5-(trifluoromethyl)-1H-pyrazol-3-yl)thiophen-2-ylsulfonyl)-2-oxopiperazin-1-yl)-N-(thiazol-2-yl)propanamide]	≥ 3160	≤ 74	
Cc1cc(F)ccc1S(=O)(=O)N1CCN([C@@H](CC2CCCCC2)C(=O)Nc2nccs2)C(=O)C1 [Example 223, (S)-3-cyclohexyl-2-(4-(4-fluoro-2-methylphenylsulfonyl)-2-oxopiperazin-1-yl)-N-(thiazol-2-yl)propanamide]	1580 to 2510	97.1 to 107	
O=C(Nc1ncc(Cl)s1)C(CC1CCOCC1)N1CCN(S(=O)(=O)c2cccc(F)c2)CC1=O (stereo not drawn) [Example 147, N-(5-chlorothiazol-2-yl)-2-(4-(3-fluorophenylsulfonyl)-2-oxopiperazin-1-yl)-3-(tetrahydro-2H-pyran-4-yl)propanamide]	794 to 1260	108 to 119	
